Like-named read-outs stand apart in the source and are kept apart here.
What was measured:
KM12 cells = assay: KM12 cell viability (CellTiter-Glo); type: cell-based; settings: Homo sapiens
Summary of the method: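 Three-day exposure of KM12 cells (5000/well, RPMI 1640 with 10% FBS, 37 °C, 5% CO2) to compound dilution series, 3-fold over 8 or 11 points (top 1000 nM in the 8-point format) or 2-fold over 12. CellTiter-Glo readout, with IC50 fitted by nonlinear least-squares regression.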

TPM3-TRKA fusion protein = target: T1, TPM3-TRKA fusion protein (Homo sapiens, UniProt P04629); assay: TPM3-TRKA fusion protein levels in KM12 cells (Western blot); type: cell-based; settings: read-out: Degradation (at 10 nM)
T1 construct: The resulted chimeric proteins always retain the kinase domain of TRK proteins; TPM3 (fusion partner, N-terminal part of tropomyosin alpha-3, P06753); endogenous in cells; host or cells: KM12 colon cancer cells; the other entry of the earlier key: TPM3 (P06753, Tropomyosin alpha-3 chain)
T1 sequence (P04629 with tags, fused parts or gaps): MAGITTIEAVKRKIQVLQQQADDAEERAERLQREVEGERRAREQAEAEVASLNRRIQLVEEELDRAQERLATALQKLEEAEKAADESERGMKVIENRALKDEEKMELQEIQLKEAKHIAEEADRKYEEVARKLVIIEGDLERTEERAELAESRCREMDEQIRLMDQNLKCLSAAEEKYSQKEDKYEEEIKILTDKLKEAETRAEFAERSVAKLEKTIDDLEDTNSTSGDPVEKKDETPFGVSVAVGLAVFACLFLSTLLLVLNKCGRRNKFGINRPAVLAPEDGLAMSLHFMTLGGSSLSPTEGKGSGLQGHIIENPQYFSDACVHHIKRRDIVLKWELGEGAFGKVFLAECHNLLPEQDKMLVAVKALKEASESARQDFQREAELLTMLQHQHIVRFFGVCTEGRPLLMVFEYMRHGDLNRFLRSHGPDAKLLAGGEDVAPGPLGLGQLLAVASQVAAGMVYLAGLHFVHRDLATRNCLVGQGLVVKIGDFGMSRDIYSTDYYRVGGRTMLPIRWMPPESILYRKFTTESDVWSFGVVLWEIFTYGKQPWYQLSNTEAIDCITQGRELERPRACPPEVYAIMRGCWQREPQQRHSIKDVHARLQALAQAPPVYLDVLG
Summary of the method: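 TPM3-TRKA levels were assessed by Western blot with chemiluminescent detection and band densitometry, after SDS-PAGE of BCA-normalized RIPA lysates. Before lysis, KM12 cells received DMSO, compounds or matched control compounds at concentrations including 0.1, 1, 10 and 100 nM and 0.4–30 nM. Exposures lasted 4 h, 8–16 h or 16 h.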

[1] = 72 h, KM12 cell viability, CellTiter-Glo, three days treatment, read-out: IC50
[2] = 16 h, TPM3-TRKA degradation in KM12 cells at 10 nM compound, category of percentage degradation

percent degradation of TPM3-TRKA protein at 0.01 µM (TPM3-TRKA fusion protein; [2]) [%] | Structure (SMILES) | IC50 (KM12 cells; [1]) [nM] | IC50 (KM12 cells; KM12, 72 h) [nM] | percent degradation of TPM3-TRKA protein at 0.01 µM (TPM3-TRKA fusion protein; KM12, 16 h) [%]
< 50 | Cn1c(=O)n(C2CCC(=O)NC2=O)c2cccc(OCCN3CCN(c4cccc(-c5cnc6ccc(N7CCC[C@@H]7c7cccc(F)c7)nn56)n4)CC3)c21 (stereo partly drawn) [TR-244, 3-(4˜ (2-(4-(6-(6-((R)-2-(3-Fluorophenyl)pyrrolidin-1-yl)imidazo[1,2-b]pyridazin-3-yl)pyridin-2-yl)piperazin-1-yl)ethoxy)-3-methyl-2-oxo-2,3-dihydro-1H-benzo[d]imidazol-1-yl)piperidine-2,6-dione] | 298 | – | –
> 80 | Cn1c(=O)n(C2CCC(=O)NC2=O)c2ccc(OCCN3CCN(c4cccc(-c5cnc6ccc(N7CCC[C@@H]7c7cccc(F)c7)nn56)n4)CC3)cc21 (stereo partly drawn) [TR-246, 3-(5-(2-(4-(6-(6-((R)-2-(3-Fluorophenyl)pyrrolidin-1-yl)imidazo[1,2-b]pyridazin-3-yl)pyridin-2-yl)piperazin-1-yl)ethoxy)-3-methyl-2-oxo-2,3-dihydro-1H-benzo[d]imidazol-1-yl)piperidine-2,6-dione] | 101 | – | –
> 80 | O=C1CCC(n2c(=O)oc3c(NCCN4CCN(c5cccc(-c6cnc7ccc(N8CCC[C@@H]8c8cccc(F)c8)nn67)n5)CC4)cccc32)C(=O)N1 (stereo partly drawn) [TR-247, 3-(7-((2-(4-(6-(6-((R)-2-(3-Fluorophenyl)pyrrolidin-1-yl)imidazo[1,2-b]pyridazin-3-yl)pyridin-2-yl)piperazin-1-yl)ethyl)amino)-2-oxobenzo[d]oxazol-3 (2H)-yl)piperidine-2,6-dione] | 8.2 | – | –
> 80 | O=C1CCC(N2C(=O)c3ccc(CN4CC(CN5CCN(c6cccc(-c7cnc8ccc(N9CCC[C@@H]9c9cccc(F)c9)nn78)n6)CC5)C4)cc3C2=O)C(=O)N1 (stereo partly drawn) [TR-248, 2-(2,6-Dioxopiperidin-3-yl)-5-((3-((4-(6-(6-((R)-2-(3-fluorophenyl)pyrrolidin-1-yl)imidazo[1,2-b]pyridazin-3-yl)pyridin-2-yl)piperazin-1-yl)methyl)azetidin-1-yl)methyl)isoindoline-1,3-dione] | 27.4 | – | –
> 80 | O=C1CCC(N2C(=O)c3ccc(CN4CC(CN5CCN(c6ccc(C(=O)Nc7n[nH]c8ccc(Cc9cc(F)cc(F)c9)cc78)c(NC7CCOCC7)c6)CC5)C4)cc3C2=O)C(=O)N1 (stereo not shown) [TR-249, N-(5-(3,5-difluorobenzyl)-1H-indazol-3-yl)-4-(4-((1-((2-(2,6-dioxopiperidin-3-yl)-1,3-dioxoisoindolin-5-yl)methyl)azetidin-3-yl)methyl)piperazin-1-yl)-2-((tetrahydro-2H-pyran-4-yl)amino)benzamide] | 15.1 | – | –
> 80 | Cn1c(=O)n(C2CCC(=O)NC2=O)c2ccc(N3CC(CN4CCN(c5cccc(-c6cnc7ccc(N8CCC[C@@H]8c8cccc(F)c8)nn67)n5)CC4)C3)cc21 (stereo partly drawn) [TR-250, 3-(5-(3-((4-(6-(6-((R)-2-(3-fluorophenyl)pyrrolidin-1-yl)imidazo[1,2-b]pyridazin-3-yl)pyridin-2-yl)piperazin-1-yl)methyl)azetidin-1-yl)-3-methyl-2-oxo-2,3-dihydro-1H-benzo[d]imidazol-1-yl)piperidine-2,6-dione] | 16.1 | – | –
> 80 | O=C1CCC(N2C(=O)c3ccc(CN4CC(CN5CCN(c6ccc(C(=O)Nc7n[nH]c8ccc(Cc9cc(F)cc(F)c9)cc78)c(NCCF)c6)CC5)C4)cc3C2=O)C(=O)N1 (stereo not shown) [TR-251] | 46.5 | – | –
– | O=C1CCC(N2C(=O)c3ccc(CN4CC(N5CCN(c6ccc(C(=O)Nc7n[nH]c8ccc(Cc9cc(F)cc(F)c9)cc78)c(NCCF)c6)CC5)C4)cc3C2=O)C(=O)N1 (stereo not drawn) [TR-252, N—(S-(3,5-Difluorobenzyl)-1H-indazol-3-yl)-4-(4-(1-((2-(2,6-dioxopiperidin-3-yl)-1,3-dioxoisoindolin-5-yl)methyl)azetidin-3-yl)piperazin-1-yl)-2-((2-fluoroethyl)amino)benzamide] | – | 47.6 | > 80
> 80 | O=C1CCC(N2Cc3cc(C#CCN4CCN(c5ccc(C(=O)Nc6n[nH]c7ccc(Cc8cc(F)cc(F)c8)cc67)c(NC6CCOCC6)c5)CC4)ccc3C2=O)C(=O)N1 (stereo not shown) [TR-253, N-(5-(3,5-Difluorobenzyl)-1H-indazol-3-yl)-4-(4-(3-(2-(2,6-dioxopiperidin-3-yl)-1-oxoisoindolin-5-yl)prop-2-yn-1-yl)piperazin-1-yl)-2-((tetrahydro-2H-pyran-4-yl)amino)benzamide] | 6.9 | – | –
– | O=C1CCC(N2C(=O)c3ccc(CN4CC(N5CCN(c6ccc(C(=O)Nc7n[nH]c8ccc(Cc9cc(F)cc(F)c9)cc78)c(NC7CCOCC7)c6)CC5)C4)cc3C2=O)C(=O)N1 (stereo not shown) [TR-254, N-(5-(3,5-difluorobenzyl)-1H-indazol-3-yl)-4-(4-(1-((2-(2,6-dioxopiperidin-3-yl)-1,3-dioxoisoindolin-5-yl)methyl)azetidin-3-yl)piperazin-1-yl)-2-((tetrahydro-2H-pyran-4-yl)amino)benzamide] | – | 20.3 | > 80
> 80 | O=C1CCC(N2Cc3cc(C#CCN4CCN(c5ccc(C(=O)Nc6n[nH]c7ccc(Cc8cc(F)cc(F)c8)cc67)c(NCCF)c5)CC4)ccc3C2=O)C(=O)N1 (stereo not drawn) [TR-255, N—(S-(3,5-Difluorobenzyl)-1H-indazol-3-yl)-4-(4-(3-(2-(2,6-dioxopiperidin-3-yl)-1-oxoisoindolin-5-yl)prop-2-yn-1-yl)piperazin-1-yl)-2-((2-fluoroethyl)amino)benzamide] | 14.4 | – | –
50 to 80 | O=C1CCC(N2Cc3cc(C#CCN4CCN(c5ccc(C(=O)Nc6n[nH]c7ccc(Cc8cc(F)cc(F)c8)cc67)cc5)CC4)ccc3C2=O)C(=O)N1 (stereo not drawn) [TR-256, N—(S-(3,5-Difluorobenzyl)-1H-indazol-3-yl)-4-(4-(3-(2-(2,6-dioxopiperidin-3-yl)-1-oxoisoindolin-5-yl)prop-2-yn-1-yl)piperazin-1˜yl)benzamide] | 46.9 | – | –
> 80 | Cn1c(=O)n(C2CCC(=O)NC2=O)c2cccc(N3CC(CN4CCN(c5cccc(-c6cnc7ccc(N8CCC[C@@H]8c8cccc(F)c8)nn67)n5)CC4)C3)c21 (stereo partly drawn) [TR-258, 3-(4-(3-((4-(6-(6-((R)-2-(3-fluorophenyl)pyrrolidin-1-yl)imidazo[1,2-b]pyridazin-3-yl)pyridin-2-yl)piperazin-1-yl)methyl)azetidin-1-yl)-3-methyl-2-oxo-2,3-dihydro-1H-benzo[d]imidazol-1-yl)piperidine-2,6-dione] | 10.4 | – | –
> 80 | Cn1c(=O)n(C2CCC(=O)NC2=O)c2ccc(CCCCN3CCN(c4cccc(-c5cnc6ccc(N7CCC[C@@H]7c7cccc(F)c7)nn56)n4)CC3)cc21 (stereo partly drawn) [TR-259, 3-(5-(4-(4-(6-(6-((R)-2-(3-fluorophenyl)pyrrolidin-1-yl)imidazo[1,2-b]pyridazin-3-yl)pyridin-2-yl)piperazin-1-yl)butyl)-3-methyl-2-oxo-2,3-dihydro-1H-benzo[d]imidazol-1-yl)piperidine-2,6-dione] | 5.3 | – | –
